Measured values as given in patent US7364882B1, “Enzymatic reduction of a nitrile containing compound to the corresponding amine” (State of Oregon Acting by and Through the State Board of …, priority 2004, dated 2008).
Residue numbers refer to the chain shown, from its start. Names may count otherwise. Read-outs that look alike come from different tables or passages of the source.

How the values were obtained:
Format in all cases: biochemical
QueF = QueF nitrile oxido-reductase assay, continuous UV monitoring of NADPH oxidation (preQ0 to preQ1)
Method: PreQ0 oxido-reductase activity was determined using a number of redox cofactors, and activity was observed only in the presence of NADPH. […] […] Assays were run from 30 seconds to 2 hours.
To confirm that preQ1 was the reduced product as predicted, reaction assays were analyzed by reverse-phase HPLC (Bondclone 10 C-18, 300×3.9 mm) with a mobile phase of 20 mM ammonium actetate (pH 6.0) and methanol. With a flow-rate of 1 mL/min a series of linear gradients were developed from 20 mM ammonium acetate (pH 6.0) (buffer U) to 75% methanol in buffer U (buffer V) in the following manner (beginning time and ending time and linear increase to % V): 0-20.0 min, 0% V; 20.0-30.0 min, 8% V; 30.0-40.0 min, 20% V; 40.0-42.0 min, 100% V; 42.0-50.0 min, 100% V; and 50.0.0-52.0 min, 0% V. PreQ0 and preQ1 were detected with a diode array detector.

[1] = standard nitrile oxido-reductase assay of B. subtilis QueF mutants; settings: Glu98 substitution in SEQ ID NO: 2
Method: Assays were typically carried out at 30° C. in a final volume of 80 μL in a solution of 50 mM HEPES (pH 7.5), 50 mM KCl, 1 mM DTT, 2-150 μM NADPH, 0.2-150 μM preQ0, and 10-1000 nM QueF. Assays were run from 30 seconds to 2 hours.

[2] = GTP cyclohydrolase activity assays (radiochemical [14C]formic acid release, fluorescence, HPLC); settings: three assays, large screen of conditions (cyclohydrolase I, II, III)
Text: GTP cyclohydrolase activity was investigated using three different assays (radiochemical based release of [^14C]formic acid, fluorescence, or HPLC analysis of reactions) and a large screen of assay conditions (including those for cyclohydrolase I, II, and III activity).

N#Cc1c[nH]c2nc(N)[nH]c(=O)c12 [preQ0, 7-cyano-7-deazaguanine]
Km (QueF; read-out: KM for preQ0): < 1 µM | kcat (QueF; variable NADPH and constant, saturating preQ0): 0.01 s⁻¹

NCC1C=Nc2nc(N)[nH]c(=O)c21 (stereo not shown) [preQ1, 7-aminomethyl-7-deazaguanine]
preQ0 generated when the reaction was run in reverse (QueF; reverse reaction with preQ1 and NADP+): < 1%

reduced form of nicotinamide adenine dinucleotide phosphate [NADPH]
Km (QueF; variable NADPH and constant, saturating preQ0, read-out: KM for NADPH): 36 µM

B1: E98M: QueF with substitution of Glu98 in SEQ ID NO: 2 to Met (protein)
chain: MTTRKESELEGVTLLGNQGTNYLFEYAPDVLESFPNKHVNRDYFVKFNCPEFTSLCPKTGQPDFATIYISYIPDEKMVESKSLKLYLFSFRNHGDFHMDCMNIIMNDLIELMDPRYIEVWGKFTPRGGISIDPYTNYGKPGTKYEKMAEYRMMNHDLYPETIDNR
ability to reduce PreQ0 [1]: significantly decreased

B2: YkvM: B. subtilis QueF Class I protein, SEQ ID NO: 2 (protein)
chain: B1 chain with M98E
GTP cyclohydrolase activity [2]: no GTP cyclohydrolase activity was detected

B3: YqcD: E. coli QueF Class II protein, SEQ ID NO: 4 (protein)
chain: MSSYANHQALAGLTLGKSTDYRDTYDASLLQGVPRSLNRDPLGLKADNLPFHGTDIWTLYELSWLNAKGLPQVAVGHVELDYTSVNLIESKSFKLYLNSFNQTRFNNWDEVRQTLERDLSTCAQGKISVALYRLDELEGQPIGHFNGTCIDDQDITIDNYEFTTDYLENATCGEKVVEETLVSHLLKSNCLITHQPDWGSLQIQYRGRQIDREKLLRYLVSFRHHNEFHEQCVERIFNDLLRFCQPEKLSVYARYTRRGGLDINPWRSNSDFVPSTTRLVRQ
GTP cyclohydrolase activity [2]: no GTP cyclohydrolase activity was detected
